Experimental data reported in patent publication US20260118345A1, “METHOD OF EVALUATING INTERCELLULAR INTERACTIONS IN NEUROINFLAMMATION” (FUJIFILM Corporation, priority 2023, published 2026).

Legend:
[1] = test system: two-cell-type co-culture of neurons and astrocytes; assay: Neural activity by calcium imaging (BPM), two-dimensional two-cell-type co-culture of neurons and astrocytes; assay type: cell-based, human; details: 24 hours after stimulation (TNF-α 7.5 ng/mL or LPS 100 ng/mL)
Procedure: Matrigel basement membrane matrix (Corning, 356234) diluted 120-fold with DMEM/F12 (Life technologies, 11320-033) was added to a 96-well plate at 65 μL/well and allowed to stand at 4° C. After 24 hours, the culture medium was replaced with a progenitor cell culture medium and used. Astrocyte precursor cells (XCell Science, XCS-AP-001-1V) were seeded in a 96-well plate at a density of 6×10^4 cells/well, cultured under the conditions of 37° C. and 5% CO2, after culture medium was replaced with the differentiation induction culture medium, further cultured for 5 days to differentiate into astrocytes. […] After centrifugation, the supernatant was removed, the cells were suspended in 1 mL of the co-culture medium, and the number of cells was counted. […] In addition, at 24 hours after the stimulation with LPS or TNF-α, the neural activity was evaluated by calcium imaging. […] After incubating for 1 hour under conditions of 37° C. and 5% CO2, the solution was replaced with a warmed (37° C.) recording solution, and the fluorescence was measured for 10 minutes with FDSS (registered trademark)/μcell (Hamamatsu Photonics K. K., C13299). The neural activity was evaluated by quantifying the number of peaks of calcium oscillation using Wave Checker Software (Hamamatsu Photonics K. K.).

NF-κB = NF-κB localization by immunostaining after LPS stimulation, two-dimensional three-cell-type co-culture of astrocytes, neurons and microglia; assay type: cell-based, human; details: LPS 100 ng/mL, no R-7050
Procedure: Matrigel basement membrane matrix (Corning, 356234) diluted 120-fold with DMEM/F12 (Life technologies, 11320-033) was added to a 96-well plate at 65 μL/well and allowed to stand at 4° C. After 24 hours, the culture medium was replaced with a progenitor cell culture medium and used.
Astrocyte precursor cells (XCell Science, XCS-AP-001-1V) were seeded in a 96-well plate at a density of 5×10^4 cells/well and cultured under the conditions of 37° C. and 5% CO2. The next day, the culture medium was replaced with the differentiation-inducing culture medium and further cultured for 5 days to differentiate into astrocytes.
The neurons were produced by forcing expression of the Ngn2 gene from iPS cells (WO2014/148646A; and Zhang Y, et al., Neuron, 78:785-98, 2013), and the cells that had been frozen and stored were used. The cells that had been frozen and stored were thawed in a warm bath at 37° C., and after thawing, the cells were added to the co-culture medium and centrifuged at 600×g at room temperature for 5 minutes. After centrifugation, the supernatant was removed, the cells were suspended in 1 mL of the co-culture medium, and the number of cells was counted.
As the microglia, iPS cell-derived microglia (iCell (registered trademark) Microglia, FCDI, C1110) were used. The cells that had been frozen and stored were thawed in a warm bath at 37° C., and after thawing, the cells were added to the co-culture medium and centrifuged at 600×g at room temperature for 5 minutes. After centrifugation, the supernatant was removed, the cells were suspended in 1 mL of the co-culture medium, and the number of cells was counted.
The neurons and the microglia were mixed in a ratio of 3:1 and seeded on the astrocytes at 4×10^4 cells/well. The cells were cultured under the conditions of 37° C. and 5% CO2, and half of the culture medium was replaced three times a week.
Microglia were specifically stimulated by adding LPS (FUJIFILM Wako Pure Chemical Corporation, 124-05151) at 100 ng/mL to the two-dimensional co-culture that had been cultured for 4 weeks. The cells were fixed by treating, for 30 minutes, with a formaldehyde solution (FUJIFILM Wako Pure Chemical Corporation, 061-00416) diluted 10-fold with PBS(−) (FUJIFILM Wako Pure Chemical Corporation, 166-23555) without treatment, and at 0.5 hours, 1 hour, 3 hours, 6 hours, and 24 hours after the treatment.
In addition, in the two-dimensional co-culture that had been cultured for 19 days, LPS (FUJIFILM Wako Pure Chemical Corporation, 124-05151) was added at 100 ng/ml and R-7050 (Cayman Chemical Company, 16870), which is a TNFR1 inhibitor, was added at 10 μmol/L, and the effect of TNF-α on the intercellular interaction induced by LPS stimulation was evaluated. The cells were fixed by treating, for 30 minutes, with a formaldehyde solution (FUJIFILM Wako Pure Chemical Corporation, 061-00416) diluted 10-fold with PBS (−) (FUJIFILM Wako Pure Chemical Corporation, 166-23555) without treatment, and at 0.5 hours, 1 hour, 3 hours, 6 hours, and 24 hours after the treatment.
The fixed cells were washed with PBS (−), and blocking and permeabilization were performed by treating with a solution (1% BSA/0.2% Triton X-100) in which BSA (Sigma-Aldrich, A4161) and Triton (registered trademark) X-100 (BioVision, 2104-100) were diluted to 1% and 0.2% with PBS (−) for 30 minutes. […]

In the case of lipopolysaccharide [LPS], the “BPM (the number of peaks of calcium oscillation per minute) as compared with the control” value [1] is reported as “no change”, the “nuclear translocation of NF-κB” value (NF-κB; 0.5 hours and 1 hours after the LPS treatment) is reported as “only some cells” and the “nuclear translocation of NF-κB” value (NF-κB; 3 hours and 6 hours after the LPS treatment) is reported as “many cells”.
